Data from article PMC11432330, “Novel Drug-like HsrA Inhibitors Exhibit Potent Narrow-Spectrum Antimicrobial Activities against Helicobacter pylori” (International Journal of Molecular Sciences, 2024).

Test system: H. pylori 26695
Assay: In vivo inhibition of HsrA: RNA-Seq transcriptomic analysis of exposed cells
Type: cell-based, Helicobacter pylori
Conditions: for log2 Fold Change: exposed to lethal concentrations vs control
Procedure: Bacterial growth from three blood agar plates of H. pylori ATCC 700392 (aka 26695) incubated for 48 h at 37 °C under microaerobic conditions was aseptically resuspended in BHI + FBS and adjusted to 10^7 CFU/mL. BHI broth cultures were incubated microaerobically at 37 °C for 24 h. […] At this time, bacterial growth was stopped by adding 1.5 mL ice-cold RNA stop solution (95% absolute ethanol, 5% acid-buffered phenol) and subsequently incubated on ice. Control samples were exposed to the same amount of DMSO instead of the inhibitor. Helicobacter cells from all samples were harvested by centrifugation (4000 rpm at 4 °C for 10 min), then the pellets were quickly frozen by immersion in liquid nitrogen and stored at −80 °C.
RNA-Seq analysis was performed by GENEWIZ (Azenta Life Sciences, Leipzig, Germany). Frozen cell pellets from two biological replicates of each treatment condition were properly submitted to GENEWIZ in dry ice. RNA-Seq libraries were prepared according to standard protocols via rRNA depletion, RNA fragmentation and random priming, reverse transcription, 5’-phosphorylation and dA-tailing of cDNAs, adaptor ligation, and PCR enrichment. Once the quality of each library was confirmed, they were sequenced on an Illumina NovaSeq 6000 (Illumina, San Diego, CA, USA) with 150-bp paired-ends. Raw sequence reads were filtered to remove possible adapter sequences and nucleotides with poor quality using Trimmomatic v.0.36 [105]. The trimmed reads were subsequently mapped to the H. pylori strain 26695 reference genome NC_000915.1 available on NCBI, by using the Bowtie2 aligner v.2.2.6 [106]. Unique gene hit counts were calculated by using featureCounts from the Subread package v.1.5.2. Only unique reads that fell within the gene regions were counted. Using DESeq2 [108], a comparison of the gene expression between the control and treated groups of samples was performed. The Wald test was used to generate p-values and log2 fold changes. Genes with an adjusted p-value < 0.05 and absolute log2 fold change >1 were considered as differentially expressed genes (DEGs) for each comparison. The RNA-Seq data generated in this study have been deposited in ArrayExpress with the accession number E-MTAB-14255.

NC(=NOC(=O)Nc1ccc(Cl)cc1)c1csc([N+](=O)[O-])c1 [Ligand V, N′-{[(4-chloroanilino)carbonyl]}oxy-5-nitrothiophene-3-carboximidamide]
log2 Fold Change (gene HP1464): -0.584 | log2 Fold Change (gene HP1467): 1.322 | log2 Fold Change HP1469 (gene HP1469, lethal concentrations of V vs control): 0.362 | log2 Fold Change (gene HP1470): 1.312 | log2 Fold Change HP1473 (gene HP1473, lethal concentrations of V vs control): 0.275 | log2 Fold Change (gene HP1481): -0.602 | log2 Fold Change HP1492 (gene HP1492, lethal concentrations of V vs control): 0.282 | log2 Fold Change HP1499 (gene HP1499, lethal concentrations of V vs control): 0.340 | log2 Fold Change HP1501 (gene HP1501, lethal concentrations of V vs control): 0.305 | log2 Fold Change (gene HP1504): 1.311 | log2 Fold Change HP1505 (gene HP1505, lethal concentrations of V vs control): 0.278 | log2 Fold Change HP1512 (gene HP1512, lethal concentrations of V vs control): 0.234 | log2 Fold Change (gene HP1513): -0.489 | log2 Fold Change HP1521 (gene HP1521, lethal concentrations of V vs control): 0.260 | log2 Fold Change (gene HP1537): -0.495 | log2 Fold Change HP1539 (gene HP1539, lethal concentrations of V vs control): 0.288 | log2 Fold Change (gene HP1556): -0.480 | log2 Fold Change HP1562 (gene HP1562, lethal concentrations of V vs control): 0.282 | log2 Fold Change (gene HP1572): -0.532 | log2 Fold Change (gene HP1573): -0.478 | log2 Fold Change (gene HPrrnA16S): 2.639 | log2 Fold Change (gene acpS): -0.554 | log2 Fold Change adk (gene adk, lethal concentrations of V vs control): 0.370 | log2 Fold Change aroB (gene aroB, lethal concentrations of V vs control): 0.331 | log2 Fold Change ddl (gene ddl, lethal concentrations of V vs control): 0.165 | log2 Fold Change dnaA (gene dnaA, lethal concentrations of V vs control): 0.315 | log2 Fold Change dnaG (gene dnaG, lethal concentrations of V vs control): 0.180 | log2 Fold Change dut (gene dut, lethal concentrations of V vs control): 0.253 | log2 Fold Change fbcH (gene fbcH, lethal concentrations of V vs control): 0.402 | log2 Fold Change flgD (gene flgD, lethal concentrations of V vs control): 0.479 | log2 Fold Change flgH (gene flgH, lethal concentrations of V vs control): 0.237 | log2 Fold Change flhF (gene flhF, lethal concentrations of V vs control): 0.252 | log2 Fold Change (gene fliQ): -0.518 | log2 Fold Change fliR (gene fliR, lethal concentrations of V vs control): 0.363 | log2 Fold Change folE (gene folE, lethal concentrations of V vs control): 0.244 | log2 Fold Change fusA (gene fusA, lethal concentrations of V vs control): 0.268 | log2 Fold Change (gene gcp): -0.507 | log2 Fold Change glmM (gene glmM, lethal concentrations of V vs control): 0.344 | log2 Fold Change (gene gltX): -0.588 | log2 Fold Change gmk (gene gmk, lethal concentrations of V vs control): 0.172 | log2 Fold Change groES (gene groES, lethal concentrations of V vs control): 0.428 | log2 Fold Change guaA (gene guaA, lethal concentrations of V vs control): 0.370 | log2 Fold Change gyrB (gene gyrB, lethal concentrations of V vs control): 0.200 | log2 Fold Change (gene hemC): -0.538 | log2 Fold Change hypA (gene hypA, lethal concentrations of V vs control): 0.375 | log2 Fold Change infB (gene infB, lethal concentrations of V vs control): 0.319 | log2 Fold Change ksgA (gene ksgA, lethal concentrations of V vs control): 0.343 | log2 Fold Change (gene lpxB): -0.543 | log2 Fold Change lpxK (gene lpxK, lethal concentrations of V vs control): 0.332 | log2 Fold Change mnmA (gene mnmA, lethal concentrations of V vs control): 0.256 | log2 Fold Change motB (gene motB, lethal concentrations of V vs control): 0.465 | log2 Fold Change mraY (gene mraY, lethal concentrations of V vs control): 0.155 | log2 Fold Change nusB (gene nusB, lethal concentrations of V vs control): 0.152 | log2 Fold Change oorC (gene oorC, lethal concentrations of V vs control): 0.231 | log2 Fold Change (gene panC): 1.338 | log2 Fold Change (gene pheT): -0.561 | log2 Fold Change porA (gene porA, lethal concentrations of V vs control): 0.146 | log2 Fold Change prfB (gene prfB, lethal concentrations of V vs control): 0.329 | log2 Fold Change pyrH (gene pyrH, lethal concentrations of V vs control): 0.243 | log2 Fold Change recA (gene recA, lethal concentrations of V vs control): 0.430 | log2 Fold Change (gene rnc): -0.477 | log2 Fold Change (gene rplQ): -0.590 | log2 Fold Change (gene rplW): -0.487 | log2 Fold Change (gene rplX): -0.561 | log2 Fold Change rpsB (gene rpsB, lethal concentrations of V vs control): 0.177 | log2 Fold Change (gene rpsI): -0.579 | log2 Fold Change ruvA (gene ruvA, lethal concentrations of V vs control): 0.457 | log2 Fold Change ruvB (gene ruvB, lethal concentrations of V vs control): 0.388 | log2 Fold Change secD (gene secD, lethal concentrations of V vs control): 0.450 | log2 Fold Change (gene tRNA-Arg-4): -0.569 | log2 Fold Change (gene tRNA-Gln-1): 1.327 | log2 Fold Change tRNA-Ser-1 (gene tRNA-Ser-1, lethal concentrations of V vs control): 0.297 | log2 Fold Change (gene tRNA-Ser-2): 1.370 | log2 Fold Change tRNA-Ser-3 (gene tRNA-Ser-3, lethal concentrations of V vs control): 0.425 | log2 Fold Change (gene tRNA-Trp-1): -0.513 | log2 Fold Change (gene tgt): -0.523 | log2 Fold Change trpD (gene trpD, lethal concentrations of V vs control): 0.327 | log2 Fold Change tsf (gene tsf, lethal concentrations of V vs control): 0.474 | log2 Fold Change uvrA (gene uvrA, lethal concentrations of V vs control): 0.417 | log2 Fold Change (gene xseA): -0.471 | log2 Fold Change yajC (gene yajC, lethal concentrations of V vs control): 0.146
